Consider 1 molecule from patent US20220031596A1, “ANTI-AGING AGENT AND ANTI-AGING METHOD” (priority 2018, published 2022).

The structures appear in SMILES notation.

Holding throughout (assay type): in vivo, human
Data set [1] relates to ghrelin concentration in the plasma. Put plainly: Evaluation of ghrelin secretion promoting effect (plasma ghrelin, 24-week oral ingestion). As to conditions: for ghrelin concentration in the plasma, 0 weeks (before ingestion) / ghrelin concentration in the plasma, 24 weeks (after ingestion) / ghrelin concentration in the plasma, Change rate (24 weeks - 0 weeks): High Dose Group (200 mg/daily, oral), mean±SD; for ghrelin concentration in the plasma, 0 weeks (before ingestion): baseline. Here is the method: In order to confirm a change in the ghrelin quantity before and after ingestion of the nicotinamide mononucleotide, a test was conducted on healthy males and females aged 50 to 70 years.
As a sample of Working Example 3, a capsule formulation containing the nicotinamide mononucleotide and starch (200 mg of the nicotinamide mononucleotide in 4 capsules) (manufactured by SHINKOWA PHARMACEUTICAL Co., Ltd.) was used.
(§1) Each group consisting of five healthy males and females aged 50 to 70 years in an unbiased age group ingested the above capsule formulation once a day by 4 capsules for 24 weeks (total 10 subjects, 200 mg/daily ingestion). In order to conduct appropriate evaluations, those who had been regularly using medical products for chronic diseases, those who had been consuming healthy foods that may affect clinical research, and those who were currently participating in other clinical researches or clinical trials or had participated in other clinical researches or clinical trials within the last three months were excluded from the subject for the evaluation. The capsule formulations were ingested at 10 am (between meals and fasting state) together with water or lukewarm water (oral administration).
Measurement of the ghrelin quantity in the plasma was conducted by requesting the measurement to an external public organization according to a usual method. FIGS. 6a to 6c indicate transitions of the ghrelin concentration (pg/ml) in the plasma for 24 weeks. FIG. 6a represents the transitions of the whole subjects; FIG. 6b represents the transitions of the male subjects; FIG. 6c represents the transitions of the female subjects. Further, FIGS. 7a to 7c indicate change rates (%) of the blood ghrelin concentration up to 24 weeks when the nicotinamide mononucleotide was orally administered to the subjects for 24 weeks. FIG. 7a represents the change rates of the whole subjects; FIG. 7b represents the change rates of the male subjects; FIG. 7c represents the change rates of the female subjects. Further, Table 3 indicates the numerical values of the ghrelin concentration (pg/ml) in the plasma before the ingestion of the nicotinamide mononucleotide (0 weeks) and after the ingestion of the nicotinamide mononucleotide (24 weeks). Note that the numerical values represent mean values±standard deviation.

Data set [2] relates to mRNA expression level of the sirtuin gene Sirt1. The experiment in a line: Evaluation of sirtuin 1 (Sirt1) secretion promoting effect (blood Sirt1 mRNA by real-time PCR, 24-week oral ingestion). As to conditions: for mRNA expression level of the sirtuin gene Sirt1 (relative to that of GAPDH), 0 weeks (before ingestion) / mRNA expression level of the sirtuin gene Sirt1 (relative to that of GAPDH), 24 weeks (after ingestion) / mRNA expression level of the sirtuin gene Sirt1 (relative to that of GAPDH), Change rate (24 weeks - 0 weeks): blood, High Dose Group (200 mg/daily, oral), mean±SD; for mRNA expression level of the sirtuin gene Sirt1 (relative to that of GAPDH), 0 weeks (before ingestion): baseline. Here is the method: In order to confirm a change in the Sirt1 quantity before and after ingestion of the nicotinamide mononucleotide, a test was conducted on healthy males and females aged 50 to 70 years.
As a sample of Working Example 13, a capsule formulation containing the nicotinamide mononucleotide and starch (200 mg of the nicotinamide mononucleotide in 4 capsules) (manufactured by SHINKOWA PHARMACEUTICAL Co., Ltd.) was used.
as §1, with “above high dose” for “above”
Measurement of the Sirt1 quantity in the blood was conducted by requesting the measurement to an external public organization according to a usual method. The mRNA expression level of the sirtuin gene Sirt1 was analyzed by a real-time PCR method with the blood collected before the ingestion of the nicotinamide mononucleotide (0 weeks) and after the ingestion of the nicotinamide mononucleotide (24 weeks). Note that, in this analysis, cDNA was purified on the day when the blood sample was collected and stored at −80° C. until all samples were prepared. The samples were then subjected to the real-time PCR method at the same time. The expression level was normalized using GAPDH as a reference gene. Table 12 indicates the numerical values of the mRNA expression level of the sirtuin gene Sirt1 (relative to that of GAPDH). Note that the numerical values represent mean values±standard deviation.

Data set [3] can be described thus: Safety observation in subjects after ingestion for 24 weeks (complaints, stool abnormality). As to conditions: healthy males and females aged 50 to 70 years, oral. Here is the method:
as §1, with “the above low dose capsule formulation” for “the above capsule formulation”, “10 subjects, a low dose group: 100 mg/daily ingestion). On the other hand, each group consisting of five healthy males and females aged 50 to 70 years in the unbiased age group ingested the above high dose capsule formulation once a day by 4 capsules for 24 weeks (total 10 subjects, a high dose group: 200 mg/daily” for “10 subjects, 200 mg/daily”, “or clinical trials, or had” for “or clinical trials or had”

With `NC(=O)c1ccc[n+]([C@@H]2O[C@H](COP(=O)([O-])O)[C@@H](O)[C@H]2O)c1` [nicotinamide mononucleotide], the “ghrelin concentration in the plasma, 0 weeks (before ingestion)” value in data set [1] (Female) stood at 260 ± 111 pg/mL; in data set [1] (Male) it was 111 ± 91 pg/mL; in data set [1] (Whole Subjects), 186 ± 124 pg/mL. Moreover, the “ghrelin concentration in the plasma, 24 weeks (after ingestion)” value in data set [1] (Female) is 990 ± 834 pg/mL; in data set [1] (Male), 152 ± 131 pg/mL; in data set [1] (Whole Subjects), 571 ± 716 pg/mL. Further, the “ghrelin concentration in the plasma, Change rate (24 weeks - 0 weeks)” value amounted to 730 ± 847 pg/mL in data set [1] (Female), 40 ± 50 pg/mL in data set [1] (Male) and 385 ± 672 pg/mL in data set [1] (Whole Subjects). The “ghrelin concentrations in the plasma, effect of ingestion (in words)” value in data set [1] (oral, 200 mg/daily, 24 weeks, FIGS. 6a-6c, 7a-7c) is reported as “increased”. The “mRNA expression level of the sirtuin gene Sirt1 (relative to that of GAPDH), 0 weeks (before ingestion)” value in data set [2] (Female) was determined as 1.01 ± 0.17; in data set [2] (Male), 1.65 ± 0.99; in data set [2] (Whole Subjects) it was 1.33 ± 0.75. Further, the “mRNA expression level of the sirtuin gene Sirt1 (relative to that of GAPDH), 24 weeks (after ingestion)” value in data set [2] (Female) turned out to be 1.72 ± 0.98; in data set [2] (Male), 3.69 ± 2.82; in data set [2] (Whole Subjects), 2.71 ± 2.25. Besides, the “mRNA expression level of the sirtuin gene Sirt1 (relative to that of GAPDH), Change rate (24 weeks - 0 weeks)” value in data set [2] (Female) stood at 1.70 ± 0.90; in data set [2] (Male) it was 4.67 ± 5.13; in data set [2] (Whole Subjects), 3.18 ± 3.81. Besides, the “expression level of Sirt1 in the blood, effect of ingestion (in words)” value in data set [2] (oral, 200 mg/daily, 24 weeks) is on record as “increased”. Besides, the “unidentified complaint (abdominal pain, nausea, vomiting, headache) or stool abnormality after the ingestion for 24 weeks” value in data set [3] (100 mg and 200 mg/daily groups) is reported as “did not show any unidentified complaint”; in data set [3] (100 mg/daily) it was “did not show any unidentified complaint”; in data set [3] (200 mg/daily), “did not show any unidentified complaint”.
